Target: T1, human recombinant Yes [a.a. 2–543 (end)] (Homo sapiens, UniProt P07947)
T1 construct: human recombinant Yes [a.a; 2–543 (end)]; purchased BPS Bioscience 40488
Experiment: ADP-Glo kinase assay, inhibition rates of Yes phosphorylation activity (first and second screening)
Assay type: biochemical
Conditions: 10 μmol L−1 compound; for First screening IR (inhibition rate): mean of n = 4 wells; for Second screening IR (inhibition rate): dissolved from fresh powder, n = 4
In short: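 Hits from a first pass were rescreened after re-dissolution from fresh powder. The first pass reported the mean inhibition rate of quadruplicate wells per compound. Activity was that of recombinant human Yes [a.a. 2–543] kinase, read out with the ADP-Glo ADP-detection method.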

T1 sequence (P07947 2-543): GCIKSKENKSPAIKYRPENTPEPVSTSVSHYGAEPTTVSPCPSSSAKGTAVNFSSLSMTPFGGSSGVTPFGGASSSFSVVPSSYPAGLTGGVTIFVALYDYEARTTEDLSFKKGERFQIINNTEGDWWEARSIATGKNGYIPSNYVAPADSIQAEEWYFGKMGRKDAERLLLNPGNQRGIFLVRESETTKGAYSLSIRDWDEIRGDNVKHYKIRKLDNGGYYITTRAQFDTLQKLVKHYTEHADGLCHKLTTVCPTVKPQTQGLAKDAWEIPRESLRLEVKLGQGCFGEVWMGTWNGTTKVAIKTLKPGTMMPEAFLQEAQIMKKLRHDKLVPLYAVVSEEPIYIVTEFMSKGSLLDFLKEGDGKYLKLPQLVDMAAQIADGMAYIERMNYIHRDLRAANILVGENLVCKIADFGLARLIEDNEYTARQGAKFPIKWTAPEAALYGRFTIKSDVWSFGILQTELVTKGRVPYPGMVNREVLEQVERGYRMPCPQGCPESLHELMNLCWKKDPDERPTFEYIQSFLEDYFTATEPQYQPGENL

| Structure (SMILES) | First screening IR (inhibition rate) [%] | Second screening IR (inhibition rate) [%] |
| --- | --- | --- |
| CCN(CC)S(=O)(=O)c1ccc(OC)c(NC(=S)NCc2ccccc2)c1 [Compound Z45779271] | 13 | – |
| Cc1c(-c2ccc(OC(F)F)cc2)nc2ccccc2c1-c1ccccc1.Cl [Compound Z48951073] | 4 | – |
| COc1ccc2cc(C3(C)NC(=O)N(CN4CCN(C/C=C/c5ccccc5)CC4)C3=O)ccc2c1 (centres unmarked) [Compound Z44124119] | 1 | – |
| Cc1sc2nc(CN3CCCC3)nc(N(C)CC(=O)Nc3ccc(N4CCOCC4)cc3)c2c1C [Compound Z31148700] | 45 | – |
| Nc1ncnc(Nc2ccccc2)n1 [Compound Z56768427] | 16 | – |
| CNS(=O)(=O)c1ccc(NC(=O)c2cn(-c3ccccc3)nc2-c2cccnc2)cc1 [Compound Z101840388] | 11 | – |
| NC(=O)c1cc(-c2csc(NCc3ccccc3)n2)ccc1O [Compound Z48850058] | 39 | 28 |
| Cc1nc2ccc(NC(=O)CNC(=O)c3ccccc3F)cc2s1 [Compound Z33270206] | 4 | – |
| CNc1snc(C)c1C(=O)OCc1csc(-c2ccc(F)cc2)n1 [Compound Z166256344] | -7 | – |
| CC(=O)c1cccc(OCC(=O)Nc2nc3ccccc3[nH]2)c1 [Compound Z27665121] | -6 | – |
| Cc1noc(C)c1COc1cccc(C(=O)N2CCN(Cc3cc(=O)n4ccsc4n3)CC2)c1 [Compound Z147054608] | 14 | – |
| CC1Cc2cc(C(=O)NC3(C)CCS(=O)(=O)C3)ccc2N1S(C)(=O)=O (centres unmarked) [Compound Z89460412] | 10 | – |
| Cc1cc(/C=N/Nc2nc(-c3ccc(F)cc3)cs2)c(C)n1-c1cc(Cl)ccc1Cl [Compound Z56791351] | -8 | – |
| O=C(c1ccc(Cl)c(S(=O)(=O)N2CCCCC2)c1)N1CCn2c1nc1ccccc12 [Compound Z204253774] | -4 | – |
| Cc1onc(-c2c(F)cccc2Cl)c1C(=O)OCc1nc(-c2cccs2)no1 [Compound Z51122297] | 20 | – |
| Cc1ccccc1/C=C1/CC(C)Cc2c1nc1ccccc1c2C(=O)O (centres unmarked) [Compound Z46107859] | -3 | – |
| NS(=O)(=O)c1ccc(S(=O)(=O)N2CCCC2)cc1 [Compound Z45415601] | -6 | – |
| O=C(CN1CCN(c2nc(-c3ccccn3)nc3scc(-c4ccccc4)c23)CC1)N1CCCCC1 [Compound Z165261492] | 13 | – |
| CS(=O)(=O)NS(=O)(=O)CCCCCl [Compound Z56755807] | -15 | – |
| Cc1cccc(/C=N/Nc2ncnc3sc(C)c(C)c23)c1 [Compound Z49890788] | 3 | – |
| CCOc1ccc(-n2c(O)c(C=NCCCN3CCOCC3)c3ccccc3c2=O)cc1 [Compound Z31276645] | -6 | – |
| COc1ccc(/C=N/Nc2ncnc3sc(C)c(C)c23)cc1O [Compound Z49890825] | 4 | – |
| NS(=O)(=O)c1ccc2nc(-c3ccc4c(c3)-c3ccccc3C4)cn2c1 [Compound Z82176567] | 27 | – |
| Cc1ccc(-c2nn3c(=O)c4c5c(sc4nc3c3ccccc23)CC(C(C)(C)C)CC5)cc1 (centres unmarked) [Compound Z56929220] | -24 | – |
| Cc1ccc(-c2cc(C(=O)O)c3c(C)nn(-c4ccc(C)cc4C)c3n2)cc1 [Compound Z55871149] | 40 | – |

The next lines start with the values.

| First screening IR (inhibition rate) [%] | Second screening IR (inhibition rate) [%] | Structure (SMILES) |
| --- | --- | --- |
| 0 | – | CN(C(=O)c1ccc(C2SCCCS2)cc1)c1ccc(C(N)=O)cc1 [Compound Z740420934] |
| 14 | – | COc1ccc(-c2nc(NC(=O)c3ccc(NC(=O)c4ccccc4)cc3)n[nH]2)cc1 [Compound Z332936670] |
| 29 | – | CNc1snc(C)c1C(=O)NC(C)c1sc(-c2ccc(F)cc2)nc1C (centres unmarked) [Compound Z1129440199] |
| 7 | – | O=S1(=O)CCC(N2CCN(Cc3cc(Cl)cc(C4CCCCC4)c3O)CC2)C1 (centres unmarked) [Compound Z827167912] |
| 6 | – | CCn1ncc2c(C(=O)NCc3cccc(OC)c3)cc(-c3ccccc3)nc21 [Compound Z224328394] |
| -3 | – | CC(C)c1ccc(-n2cc(O)c(C(=O)NCC(C)N3CCCCC3=O)n2)cc1 (centres unmarked) [Compound Z1820642882] |
| 31 | 16 | Cc1c(/C=C2/C(=O)Nc3ccc(F)cc32)cnn1C [Compound Z1517268554] |
| 22 | – | Cn1cc(CNC2CCc3ncnn3C2)c(-c2ccncc2)n1 (centres unmarked) [Compound Z1139562831] |
| -9 | – | N#Cc1c(CN2CCN(S(=O)(=O)c3cc(Cl)ccc3Cl)CC2)cn2ccccc12 [Compound Z220381008] |
| 13 | – | Cc1nc(-c2ccc(Br)cc2)nc(NCCO)c1C [Compound Z1037335626] |
| 10 | – | CCCOc1ccc(C2/C(=C(\O)c3ccc(F)cc3)C(=O)C(=O)N2CCCn2ccnc2)cc1OC (centres unmarked) [Compound Z316169876] |
| 20 | – | O=[N+]([O-])c1ccc(Nc2cccc(N3CCCC3)c2)c([N+](=O)[O-])c1 [Compound Z729847414] |
| 4 | – | Cc1ccc(S(=O)(=O)N2CCCN(S(=O)(=O)N3CC(C)CC(C)C3)CC2)cc1 (centres unmarked) [Compound Z300467774] |
| -4 | – | CCn1ncc2c(C(=O)NCC(C)(O)C(F)(F)F)cc(-c3cccs3)nc21 (centres unmarked) [Compound Z1535762010] |
| 8 | – | N#Cc1cccc(/C=C2/C(=O)Nc3ccccc32)c1 [Compound Z228595564] |
| -5 | – | Cc1nnc(NC(=O)C2CC(c3cccc(F)c3)=NO2)s1 (centres unmarked) [Compound Z381180216] |
| 37 | – | CCOC(=O)c1sc2nc(CN3CCOCC3)nc(Nc3ccc(N4CCCCC4)nc3)c2c1C [Compound Z238683848] |
| -12 | – | CC(C)c1nn(C)c(Cl)c1CNCc1ccc(N2CCOCC2)c(F)c1 [Compound Z635707390] |
| 12 | – | COc1ccc(/C(O)=C2\C(=O)C(=O)N(CCCn3ccnc3)C2c2ccc(OC(C)C)cc2)cc1 (centres unmarked) [Compound Z316169960] |
| -4 | – | O=c1[nH]c(SCc2coc(-c3ccccc3)n2)nc2sccc12 [Compound Z228473210] |
| -7 | – | Cc1cccc(-c2[nH]ncc2CNC(C)C(C)n2cccn2)c1 (centres unmarked) [Compound Z1143064210] |
| -15 | – | O=C(CN1CCN(C(=O)c2oc3ccccc3c2CSc2nccc(=O)[nH]2)CC1)N1CCCCC1 [Compound Z915764402] |
| -5 | – | COc1ccc(-n2cc(-c3ccccc3)c3c(=O)[nH]cnc32)cc1 [Compound Z295463532] |
| -4 | – | CN(C(=O)c1ccc2c(c1)CC(c1ccccc1)OC2=O)c1nc2ccccc2s1 (centres unmarked) [Compound Z238298390] |
| 3 | – | Cc1ccc(-c2noc(CN3CCN(Cc4nc5ccccc5c(=O)n4Cc4ccco4)CC3)n2)cc1 [Compound Z235827834] |
| 6 | – | Cc1cn2c3c(=O)n(CC(C)C)c(=O)n(C)c3nc2n1-c1ccc(N(C)C)cc1 [Compound Z281877508] |

Source: article PMC5607274, “An iterative compound screening contest method for identifying target protein inhibitors using the tyrosine-protein kinase Yes” (Scientific Reports, 2017)
